Test results published in patent US9427482B2, “Agents for clearing biomolecules from circulation” (KONINKLIJKE PHILIPS N.V., priority 2010, dated 2016).

Tested on: LS174T xenografts
Experiment: Biodistribution, blood kinetics and excretion of CC49-TCO-18 pretargeted ^177Lu-tetrazine 15 (Example 12)
Format: in vivo, mice
Protocol: Groups of 4 mice bearing LS174T xenografts (70-100 mm^3) were injected either with directly labeled ^177Lu-DOTA-CC49 (100 μg/100 μl, ca. 0.5 MBq per mouse) or with CC49-TCO-18 pretargeted ^177Lu-tetrazine 15 (100 μg/100 μl CC49-TCO-18 followed by two 160 μg/100 μl doses of galactose-MSA-tetrazine 12 at 30 and 48 hours and by 8.52 μg/80 μl ^177Lu-tetrazine 15, 0.8-1.2 MBq per mouse, containing 100 μg gentisic acid). One group of mice injected with ^177Lu-DOTA-CC49 and one injected with pretargeted ^177Lu-tetrazine were used to evaluate the early blood distribution of the two tracers by withdrawing blood samples from the vena saphena at selected time points (2, 30, and 60 min for ^177Lu-DOTA-CC49 and 2, 5, 10, 20, 30, and 45 min for pretargeted ^177Lu-tetrazine) (FIG. 15). These two groups of mice were then sacrificed 3 h and 1 h after the injection of ^177Lu-DOTA-CC49 and ^177Lu-tetrazine, respectively. All other groups of mice were sacrificed at various time points up to 7 days post tracer injection. After sacrifice, blood was withdrawn by heart puncture and selected organs and tissues were harvested and blotted dry. The blood samples and tissues were weighed, added with 1 mL PBS and the radioactivity was counted in a gamma counter along with standards to determine the % ID/g and % ID (Tables 7-8). Two additional groups of tumor bearing mice were used for excretion profiles (FIG. 16). The mice injected with ^177Lu-DOTA-CC49 were housed in filtered caging units and at various time points the bedding was counted in a gamma counter along with standards. The other group of mice was injected with ^177Lu-tetrazine at higher specific activity (ca. 12 MBq/8.52 μg tetrazine per mouse) and whole body clearance was monitored by measuring the animals in a dose calibrator at various time points.

Q: `O=C([O-])CN1CCN(CC(=O)[O-])CCN(CC(=O)NCCOCCOCCOCCOCCOCCOCCOCCOCCOCCOCCOCCNC(=O)CCCC(=O)Nc2ccc(-c3nnc(-c4ccccn4)nn3)nc2)CCN(CC(=O)[O-])CC1.[177Lu+3]` [^177Lu-tetrazine] was tested. Which biodistribution bladder (1 hours) did it give?
A: 2.21 ± 1.15 % ID/g

Q: What about the biodistribution blood (1 hours) of the same compound?
A: 0.42 ± 0.20 % ID/g

Q: What about the biodistribution bone (1 hours) of the same compound?
A: 1.08 ± 1.34 % ID/g

Q: And the biodistribution brain (1 hours)?
A: 0.03 ± 0.03 % ID/g

Q: What about the biodistribution heart (1 hours) of the same compound?
A: 0.16 ± 0.05 % ID/g

Q: And the biodistribution kidney (1 hours)?
A: 2.38 ± 0.55 % ID/g

Q: And the biodistribution lg. intestine (1 hours)?
A: 0.38 ± 0.11 % ID

Q: And the biodistribution liver (1 hours)?
A: 0.29 ± 0.08 % ID/g

Q: And the biodistribution lung (1 hours)?
A: 0.54 ± 0.15 % ID/g

Q: And the biodistribution muscle (1 hours)?
A: 0.23 ± 0.21 % ID/g

Q: And the biodistribution ovaries (1 hours)?
A: 0.57 ± 0.37 % ID/g

Q: What about the biodistribution sm. intestine (1 hours) of the same compound?
A: 0.16 ± 0.03 % ID

Q: And the biodistribution spleen (1 hours)?
A: 0.17 ± 0.04 % ID/g

Q: What about the biodistribution stomach (1 hours) of the same compound?
A: 0.10 ± 0.10 % ID

Q: And the biodistribution tumor (1 hours)?
A: 4.71 ± 1.13 % ID/g

Q: What about the biodistribution uterus (1 hours) of the same compound?
A: 2.80 ± 1.64 % ID/g

Q: What about the biodistribution bladder (3 hours) of the same compound?
A: 0.85 ± 0.64 % ID/g

Q: What about the biodistribution blood (3 hours) of the same compound?
A: 0.03 ± 0.00 % ID/g

Q: What about the biodistribution bone (3 hours) of the same compound?
A: 0.17 ± 0.19 % ID/g

Q: What about the biodistribution brain (3 hours) of the same compound?
A: 0.00 ± 0.00 % ID/g

Q: What about the biodistribution heart (3 hours) of the same compound?
A: 0.04 ± 0.00 % ID/g

Q: And the biodistribution kidney (3 hours)?
A: 1.58 ± 0.14 % ID/g

Q: What about the biodistribution lg. intestine (3 hours) of the same compound?
A: 0.15 ± 0.04 % ID

Q: And the biodistribution liver (3 hours)?
A: 0.18 ± 0.02 % ID/g

Q: What about the biodistribution lung (3 hours) of the same compound?
A: 0.21 ± 0.03 % ID/g

Q: What about the biodistribution muscle (3 hours) of the same compound?
A: 0.05 ± 0.03 % ID/g

Q: And the biodistribution ovaries (3 hours)?
A: 0.21 ± 0.19 % ID/g

Q: And the biodistribution sm. intestine (3 hours)?
A: 0.22 ± 0.07 % ID

Q: What about the biodistribution spleen (3 hours) of the same compound?
A: 0.09 ± 0.01 % ID/g

Q: And the biodistribution stomach (3 hours)?
A: 0.02 ± 0.01 % ID

Q: What about the biodistribution tumor (3 hours) of the same compound?
A: 5.38 ± 0.48 % ID/g

Q: And the biodistribution uterus (3 hours)?
A: 0.35 ± 0.42 % ID/g

Q: And the “injected activity excreted in the urine” value (3 hours post injection)?
A: over 95%

Q: And the tumor-to-blood ratio (3 hours post injection)?
A: ~200

Q: What about the biodistribution bladder (6 hours) of the same compound?
A: 0.20 ± 0.08 % ID/g

Q: What about the biodistribution blood (6 hours) of the same compound?
A: 0.02 ± 0.00 % ID/g

Q: What about the biodistribution bone (6 hours) of the same compound?
A: 0.03 ± 0.00 % ID/g

Q: And the biodistribution brain (6 hours)?
A: 0.00 ± 0.00 % ID/g

Q: What about the biodistribution heart (6 hours) of the same compound?
A: 0.03 ± 0.01 % ID/g

Q: What about the biodistribution kidney (6 hours) of the same compound?
A: 1.09 ± 0.18 % ID/g

Q: What about the biodistribution lg. intestine (6 hours) of the same compound?
A: 0.05 ± 0.01 % ID

Q: And the biodistribution liver (6 hours)?
A: 0.15 ± 0.01 % ID/g

Q: What about the biodistribution lung (6 hours) of the same compound?
A: 0.11 ± 0.02 % ID/g

Q: And the biodistribution muscle (6 hours)?
A: 0.02 ± 0.00 % ID/g

Q: And the biodistribution ovaries (6 hours)?
A: 0.09 ± 0.02 % ID/g

Q: And the biodistribution sm. intestine (6 hours)?
A: 0.38 ± 0.26 % ID

Q: What about the biodistribution spleen (6 hours) of the same compound?
A: 0.07 ± 0.01 % ID/g

Q: And the biodistribution stomach (6 hours)?
A: 0.01 ± 0.01 % ID

Q: And the biodistribution tumor (6 hours)?
A: 4.53 ± 1.69 % ID/g

Q: What about the biodistribution uterus (6 hours) of the same compound?
A: 0.10 ± 0.04 % ID/g

Q: And the biodistribution bladder (1 day)?
A: 0.20 ± 0.06 % ID/g

Q: What about the biodistribution blood (1 day) of the same compound?
A: 0.01 ± 0.00 % ID/g

Q: What about the biodistribution bone (1 day) of the same compound?
A: 0.03 ± 0.01 % ID/g

Q: And the biodistribution brain (1 day)?
A: 0.00 ± 0.00 % ID/g

Q: What about the biodistribution heart (1 day) of the same compound?
A: 0.03 ± 0.00 % ID/g

Q: What about the biodistribution kidney (1 day) of the same compound?
A: 1.01 ± 0.13 % ID/g

Q: And the biodistribution lg. intestine (1 day)?
A: 0.06 ± 0.06 % ID

Q: What about the biodistribution liver (1 day) of the same compound?
A: 0.13 ± 0.02 % ID/g

Q: What about the biodistribution lung (1 day) of the same compound?
A: 0.10 ± 0.01 % ID/g

Q: And the biodistribution muscle (1 day)?
A: 0.02 ± 0.00 % ID/g

Q: And the biodistribution ovaries (1 day)?
A: 0.08 ± 0.03 % ID/g

Q: And the biodistribution sm. intestine (1 day)?
A: 0.09 ± 0.05 % ID

Q: What about the biodistribution spleen (1 day) of the same compound?
A: 0.07 ± 0.01 % ID/g

Q: And the biodistribution stomach (1 day)?
A: 0.04 ± 0.05 % ID

Q: What about the biodistribution tumor (1 day) of the same compound?
A: 3.83 ± 0.95 % ID/g

Q: What about the biodistribution uterus (1 day) of the same compound?
A: 0.09 ± 0.02 % ID/g

Q: And the biodistribution bladder (2 days)?
A: 0.12 ± 0.07 % ID/g

Q: What about the biodistribution blood (2 days) of the same compound?
A: 0.01 ± 0.00 % ID/g

Q: And the biodistribution bone (2 days)?
A: 0.02 ± 0.00 % ID/g

Q: And the biodistribution brain (2 days)?
A: 0.00 ± 0.00 % ID/g

Q: What about the biodistribution heart (2 days) of the same compound?
A: 0.03 ± 0.01 % ID/g

Q: And the biodistribution kidney (2 days)?
A: 0.49 ± 0.07 % ID/g

Q: And the biodistribution lg. intestine (2 days)?
A: 0.07 ± 0.08 % ID

Q: What about the biodistribution liver (2 days) of the same compound?
A: 0.11 ± 0.02 % ID/g

Q: And the biodistribution lung (2 days)?
A: 0.08 ± 0.03 % ID/g

Q: What about the biodistribution muscle (2 days) of the same compound?
A: 0.02 ± 0.01 % ID/g

Q: And the biodistribution ovaries (2 days)?
A: 0.10 ± 0.06 % ID/g

Q: And the biodistribution sm. intestine (2 days)?
A: 0.06 ± 0.06 % ID

Q: And the biodistribution spleen (2 days)?
A: 0.07 ± 0.01 % ID/g

Q: And the biodistribution stomach (2 days)?
A: 0.01 ± 0.01 % ID

Q: And the biodistribution tumor (2 days)?
A: 3.15 ± 1.32 % ID/g

Q: What about the biodistribution uterus (2 days) of the same compound?
A: 0.12 ± 0.09 % ID/g

Q: And the biodistribution bladder (4 days)?
A: 0.13 ± 0.04 % ID/g

Q: And the biodistribution blood (4 days)?
A: 0.00 ± 0.00 % ID/g

Q: And the biodistribution bone (4 days)?
A: 0.02 ± 0.01 % ID/g

Q: And the biodistribution brain (4 days)?
A: 0.00 ± 0.00 % ID/g

Q: What about the biodistribution heart (4 days) of the same compound?
A: 0.02 ± 0.00 % ID/g

Q: And the biodistribution kidney (4 days)?
A: 0.34 ± 0.02 % ID/g

Q: What about the biodistribution lg. intestine (4 days) of the same compound?
A: 0.03 ± 0.02 % ID

Q: And the biodistribution liver (4 days)?
A: 0.14 ± 0.02 % ID/g

Q: And the biodistribution lung (4 days)?
A: 0.06 ± 0.01 % ID/g

Q: And the biodistribution muscle (4 days)?
A: 0.01 ± 0.00 % ID/g

Q: And the biodistribution ovaries (4 days)?
A: 0.09 ± 0.02 % ID/g

Q: And the biodistribution sm. intestine (4 days)?
A: 0.04 ± 0.04 % ID

Q: And the biodistribution spleen (4 days)?
A: 0.07 ± 0.01 % ID/g

Q: And the biodistribution stomach (4 days)?
A: 0.01 ± 0.00 % ID

Q: What about the biodistribution tumor (4 days) of the same compound?
A: 2.06 ± 0.84 % ID/g

Q: And the biodistribution uterus (4 days)?
A: 0.10 ± 0.07 % ID/g

Q: What about the biodistribution bladder (7 days) of the same compound?
A: 0.15 ± 0.02 % ID/g

Q: What about the biodistribution blood (7 days) of the same compound?
A: 0.00 ± 0.00 % ID/g

Q: What about the biodistribution bone (7 days) of the same compound?
A: 0.01 ± 0.00 % ID/g

Q: What about the biodistribution brain (7 days) of the same compound?
A: 0.00 ± 0.00 % ID/g

Q: What about the biodistribution heart (7 days) of the same compound?
A: 0.01 ± 0.00 % ID/g

Q: And the biodistribution kidney (7 days)?
A: 0.19 ± 0.04 % ID/g

Q: What about the biodistribution lg. intestine (7 days) of the same compound?
A: 0.02 ± 0.01 % ID

Q: What about the biodistribution liver (7 days) of the same compound?
A: 0.13 ± 0.03 % ID/g

Q: What about the biodistribution lung (7 days) of the same compound?
A: 0.04 ± 0.01 % ID/g

Q: And the biodistribution muscle (7 days)?
A: 0.01 ± 0.00 % ID/g

Q: What about the biodistribution ovaries (7 days) of the same compound?
A: 0.08 ± 0.04 % ID/g

Q: And the biodistribution sm. intestine (7 days)?
A: 0.07 ± 0.04 % ID

Q: And the biodistribution spleen (7 days)?
A: 0.08 ± 0.01 % ID/g

Q: And the biodistribution stomach (7 days)?
A: 0.01 ± 0.00 % ID

Q: What about the biodistribution tumor (7 days) of the same compound?
A: 1.02 ± 0.36 % ID/g

Q: What about the biodistribution uterus (7 days) of the same compound?
A: 0.21 ± 0.16 % ID/g

Q: What about the “T1/2, elimination from blood” value (CC49-TCO pretargeted mice) of the same compound?
A: 11.2 min

Q: And the tumor-to-blood ratio (by the end of the experiment (7 days))?
A: over 500
